Data on one molecule can be found in patent US20230218496A1, “IONIC LIQUID AS AN ANTIPERSPIRANT” (Novigo GmbH, priority 2020, published 2023).

Data set [1] can be described thus: Antiperspirant effect and side effects over the active ingredient concentration range. It counts as in vivo.
The nature of data set [2]: In vitro evidence on toxicity, skin corrosion, mutagenicity, carcinogenicity.
The test system of data set [3] is Staphylococcus epidermidis DSM 20044, ATCC 14990. Briefly: Minimum inhibitory concentration, dilution series in suspension. In kind it is cell-based. As to conditions: 1-hexylpyridinium chloride in water. From the text:
(§1) Corynebacteria and germs of the genus Staphylococcus epidermidis are mainly found in the underarm area. Therefore, the bacteriostatic effect of a composition comprising 1-hexylpyridinium chloride in water was investigated in vitro on the relevant test microbes. The test microbes used were Staphylococcus epidermidis with the identifier DSM 20044, ATCC 14990, Corynebacterium xerosis with the identification DSM 20743, ATCC 373 and Kocuria rhizophila of the type Micrococcus with the identifier DSM 11926. Using a series of dilutions of the substance to be tested, the minimum inhibitory concentration was determined at which growth of the bacteria in suspension could no longer be detected. […] Thus, an antimicrobial effect on odor-forming microorganisms and thus a deodorizing effect of the active ingredient 1-hexylpyridinium chloride is also shown in vitro.

The subject of data set [4] is Corynebacterium xerosis DSM 20743, ATCC 373. The data set is described as above. In kind it is cell-based. Particulars: 1-hexylpyridinium chloride in water.
Excerpt: as §1

The nature of data set [5]: Skin compatibility, epicutaneous test (occlusive patch). It counts as in vivo, human. As to conditions: 5% and 7.5% of the active ingredient. The source says: The aim of examining skin compatibility, the so-called epicutaneous test, is to rule out primary skin irritation caused by a test product and/or existing sensitization to the test product. The test substances are applied occlusively to the skin at suitable concentrations. The epicutaneous contact with the test product is limited in terms of location and time and is intensified by occlusion conditions, so that the absorption of the test substances is favored. The skin was examined after 24, 48 and 72 hours. The occlusion conditions are used to allow a potential allergen to more easily penetrate through the stratum corneum to reach the effector cells that could elicit a local immune system response. A positive response occurs when a threshold level of irritation/sensitization is exceeded. A positive reaction to a correctly applied epicutaneous test is considered evidence of primary irritation by the test substance, but not necessarily evidence of sensitization. For the test, 20 mg or 20 μL of the test product is applied undiluted to a ready-made plaster, which is applied and fixed to the clinically healthy skin of the upper back. The test plaster is removed after an exposure time of 24 hours and for the first time assessed dermatologically and allergologically. […] The test reaction was evaluated for the first time 30 minutes after removal of the test plaster under standardized lighting. […]

In data set [6] the target is BSA (bovine serum albumin) (Bos taurus, UniProt P02769). Briefly: Protein precipitation in vitro, BSA gelling experiments. As to conditions: composition in water. From the text:
Therefore, the ability of a composition comprising 1-hexylpyridinium chloride in water for protein precipitation was investigated in vitro using BSA (bovine serum albumin) gelling experiments. An aqueous solution of aluminum chloride hexahydrate was used as a positive control.

Chain of BSA (bovine serum albumin) (P02769 25-607): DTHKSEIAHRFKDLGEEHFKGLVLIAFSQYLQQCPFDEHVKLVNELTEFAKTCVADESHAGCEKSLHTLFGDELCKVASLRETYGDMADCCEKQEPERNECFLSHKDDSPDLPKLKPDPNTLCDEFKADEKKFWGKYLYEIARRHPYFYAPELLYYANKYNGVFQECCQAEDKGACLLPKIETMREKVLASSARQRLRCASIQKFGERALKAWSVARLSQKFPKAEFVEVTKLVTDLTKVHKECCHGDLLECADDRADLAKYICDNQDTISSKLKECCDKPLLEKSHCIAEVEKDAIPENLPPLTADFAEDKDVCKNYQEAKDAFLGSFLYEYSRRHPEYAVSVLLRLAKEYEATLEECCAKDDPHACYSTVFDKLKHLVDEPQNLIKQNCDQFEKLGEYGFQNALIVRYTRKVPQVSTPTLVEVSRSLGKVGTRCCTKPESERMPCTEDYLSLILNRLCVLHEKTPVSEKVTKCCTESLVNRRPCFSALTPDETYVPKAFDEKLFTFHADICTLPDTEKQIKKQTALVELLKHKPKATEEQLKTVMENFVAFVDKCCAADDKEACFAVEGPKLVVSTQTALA

For the molecule `CCCCCC[n+]1ccccc1.[Cl-]` [1-hexylpyridinium chloride], the serious side effects entry in data set [1] (active ingredient concentration 0.5% by weight up to 25% by weight) was “serious side effects were ruled out”. Further, the antiperspirant effect result in data set [1] (active ingredient concentration 0.5% by weight up to 30% by weight) is on record as “good antiperspirant effect”. In addition, in data set [2], the mutagenicity or carcinogenicity entry was “no mutagenicity or carcinogenicity”, the skin corrosion entry is given as “no skin corrosion” and the toxicity result was “low toxicity”. Moreover, the “minimum inhibitory concentration (bacteriostatic effect)” value in data set [3] was 0.4%. Further, the “minimum inhibitory concentration (inhibition of bacterial growth), final preparation concentration” value in data set [4] was 0.2%. Further, the “in vivo skin compatibility” value in data set [5] is “Good in vivo skin compatibility”. Besides, in data set [6], the “gelation of BSA” value was “leads to gelation of BSA”.
